Patent publication US10577363B2, “Substituted piperidine compounds” (EPIZYME, INC., priority 2014, dated 2020)

Each compound was assayed against SMYD3 (Homo sapiens (Human), UniProt Q9H7B4) (assay: SMYD3 biochemical assay (SPA, 3H-SAM methylation of MEKK2 protein substrate)). Conditions: Table 1A; IC50 values are an average of n = 1 to n = 50; read-out: SMYD3 Biochem IC50.
In short: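 SPA methyltransferase format: tag-cleaved human SMYD3, insect-cell GST-MEKK2 protein substrate, 3H-SAM donor, 30 min RT enzyme–compound preincubation, 100 uM cold SAM quench.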

Row | SMILES | IC50
1 | O=C(N[C@H]1C[C@H]2CC[C@@H](C1)N2S(=O)(=O)c1cc2oc(=O)[nH]c2cc1Cl)c1cc(C2CC2)on1 [compound 492, N-((1R,3r,5S)-8-((5-chloro-2-oxo-2,3-dihydrobenzo[d]oxazol-6-yl)sulfonyl)-8-azabicyclo[3.2.1]octan-3-yl)-5-cyclopropylisoxazole-3-carboxamide] | > 10 µM
2 | C[C@@H]1C[C@@H](NC(=O)c2cc(C3CC3)on2)CCN1S(=O)(=O)c1ccc(N(C)CCN)nc1 [compound 508, N-((2R,4S)-1-((6-((2-aminoethyl)(methyl)amino)pyridin-3-yl)sulfonyl)-2-methylpiperidin-4-yl)-5-cyclopropylisoxazole-3-carboxamide] | 0.32 µM
3 | C[C@H]1C[C@@H](NC(=O)c2cc(C3CC3)on2)CCN1S(=O)(=O)c1ccc(NCCN)nc1 [compound 509, N-((2S,4S)-1-((6-((2-aminoethyl)amino)pyridin-3-yl)sulfonyl)-2-methylpiperidin-4-yl)-5-cyclopropylisoxazole-3-carboxamide] | 0.00592 µM
4 | CC(C)CN(C)c1cc(S(=O)(=O)N2CC[C@H](NC(=O)c3cc(C4CC4)on3)C[C@@H]2C)ccn1 [compound 510, 5-cyclopropyl-N-((2S,4S)-1-((2-(isobutyl(methyl)amino)pyridin-4-yl)sulfonyl)-2-methylpiperidin-4-yl)isoxazole-3-carboxamide] | > 10 µM
5 | CC(C)CN(C)c1cc(S(=O)(=O)N2CC[C@@H](NC(=O)c3cc(C4CC4)on3)C[C@@H]2C)ccn1 [compound 511, 5-cyclopropyl-N-((2S,4R)-1-((2-(isobutyl(methyl)amino)pyridin-4-yl)sulfonyl)-2-methylpiperidin-4-yl)isoxazole-3-carboxamide] | > 10 µM

Same assay, conditions: read-out: SMYD3 Biochem IC50 (μM)*

Row | SMILES | IC50
6 | O=C(N[C@H]1CCN(S(=O)(=O)CCN2CCCC2)[C@H](Cc2ccccc2)C1)c1cc(C2CC2)on1 [compound 408, N-((2R,4S)-2-benzyl-1-((2-(pyrrolidin-1-yl)ethyl)sulfonyl)piperidin-4-yl)-5-cyclopropylisoxazole-3-carboxamide] | 1.15 µM
7 | O=C(N[C@@H]1CCN(S(=O)(=O)CCN2CCOCC2)[C@@H](Cc2ccccc2)C1)c1cc(C2CC2)on1 [compound 409, N-((2S,4R)-2-benzyl-1-((2-morpholinoethyl)sulfonyl)piperidin-4-yl)-5-cyclopropylisoxazole-3-carboxamide] | > 10 µM
8 | CC(C)CN(C)c1ccc(S(=O)(=O)N2CC[C@@H](NC(=O)c3cc(C4CC4)on3)C[C@@H]2C)cn1 [compound 411, 5-cyclopropyl-N-((2S,4R)-1-((6-(isobutyl(methyl)amino)pyridin-3-yl)sulfonyl)-2-methylpiperidin-4-yl)isoxazole-3-carboxamide] | > 10 µM
9 | O=C(NC1CC2CCC(C1)N2S(=O)(=O)CC1CCNCC1)c1cc(C2CC2)on1 (stereo not shown) [compound 416, 5-cyclopropyl-N-(8-((piperidin-4-ylmethyl)sulfonyl)-8-azabicyclo[3.2.1]octan-3-yl)isoxazole-3-carboxamide] | 0.164 µM
10 | N[C@H]1CC[C@H](C(=O)N2CC[C@H](NC(=O)c3cc(C4CC4)on3)[C@@H](CO)C2)CC1 [compound 421, N-((3S,4S)-1-((1r,4S)-4-aminocyclohexane-1-carbonyl)-3-(hydroxymethyl)piperidin-4-yl)-5-cyclopropylisoxazole-3-carboxamide] | 2.51 µM
11 | N[C@H]1CC[C@H](C(=O)N2CC[C@H](NC(=O)c3cc(C4CC4)on3)[C@H](CO)C2)CC1 [compound 422, N-((3R,4S)-1-((1r,4R)-4-aminocyclohexane-1-carbonyl)-3-(hydroxymethyl)piperidin-4-yl)-5-cyclopropylisoxazole-3-carboxamide] | 1.94 µM
12 | N[C@H]1CC[C@@H](C(=O)N2[C@@H]3CC[C@H]2C[C@@H](NC(=O)c2cc(C4CC4)on2)C3)CC1 [compound 429, N-((1R,3R,5S)-8-((1s,4S)-4-aminocyclohexane-1-carbonyl)-8-azabicyclo[3.2.1]octan-3-yl)-5-cyclopropylisoxazole-3-carboxamide] | 0.351 µM
13 | NCCCS(=O)(=O)N1CCC(NC(=O)c2cc(C3CC3)on2)CC12CCC2 (stereo not shown) [compound 445, N-(5-((3-aminopropyl)sulfonyl)-5-azaspiro[3.5]nonan-8-yl)-5-cyclopropylisoxazole-3-carboxamide] | 0.13 µM
14 | CNc1ccc(S(=O)(=O)N2CC[C@H](NC(=O)c3cc(C4CC4)on3)C[C@H]2C)cn1 [compound 447, 5-cyclopropyl-N-((2R,4S)-2-methyl-1-((6-(methylamino)pyridin-3-yl)sulfonyl)piperidin-4-yl)isoxazole-3-carboxamide] | > 10 µM
15 | CNc1ccc(S(=O)(=O)N2CC[C@@H](NC(=O)c3cc(C4CC4)on3)C[C@@H]2C)cn1 [compound 448, 5-cyclopropyl-N-((2S,4R)-2-methyl-1-((6-(methylamino)pyridin-3-yl)sulfonyl)piperidin-4-yl)isoxazole-3-carboxamide] | > 10 µM
16 | COCCNc1ccc(S(=O)(=O)N2CC[C@H](NC(=O)c3cc(C4CC4)on3)C[C@H]2C)cn1 [compound 456, 5-cyclopropyl-N-((2R,4S)-1-((6-((2-methoxyethyl)amino)pyridin-3-yl)sulfonyl)-2-methylpiperidin-4-yl)isoxazole-3-carboxamide] | > 10 µM
17 | COC(=O)C1CN(C(=O)[C@H]2CC[C@H](N)CC2)CC(C)C1NC(=O)c1cc(C2CC2)on1 (stereo partly shown) [compound 468, methyl 1-((1r,4r)-4-aminocyclohexane-1-carbonyl)-4-(5-cyclopropylisoxazole-3-carboxamido)-5-methylpiperidine-3-carboxylate] | 1.22 µM
18 | N[C@H]1CC[C@H](C(=O)N2CCC(NC(=O)c3cc(C4CC4)on3)C(c3ccccc3)C2)CC1 (stereo partly shown) [compound 469, N-(1-((1r,4r)-4-aminocyclohexane-1-carbonyl)-3-phenylpiperidin-4-yl)-5-cyclopropylisoxazole-3-carboxamide] | 6.28 µM
19 | NCCCS(=O)(=O)N1CCC(NC(=O)c2cc(C3CC3)on2)C(c2ccccc2)C1 (stereo not shown) [compound 470, N-(1-((3-aminopropyl)sulfonyl)-3-phenylpiperidin-4-yl)-5-cyclopropylisoxazole-3-carboxamide] | 2.76 µM
20 | COC(=O)C1CN(C(=O)CCCN)CC(C)C1NC(=O)c1cc(C2CC2)on1 (stereo not shown) [compound 471, methyl 1-(4-aminobutanoyl)-4-(5-cyclopropylisoxazole-3-carboxamido)-5-methylpiperidine-3-carboxylate] | 5.76 µM
21 | CC(C)CN(C)c1ncccc1S(=O)(=O)N1C2CCCC1CC(NC(=O)c1cc(C3CC3)on1)C2 (stereo not shown) [compound 472, 5-cyclopropyl-N-(9-((2-(isobutyl(methyl)amino)pyridin-3-yl)sulfonyl)-9-azabicyclo[3.3.1]nonan-3-yl)isoxazole-3-carboxamide] | > 10 µM
22 | N[C@H]1CC[C@@H](C(=O)N2[C@@H]3CC[C@H]2C[C@H](NC(=O)c2cc(C4CC4)on2)C3)CC1 [compound 486, N-((1R,3S,5S)-8-((1s,4S)-4-aminocyclohexane-1-carbonyl)-8-azabicyclo[3.2.1]octan-3-yl)-5-cyclopropylisoxazole-3-carboxamide] | > 10 µM

Further lines, results first:

Row | IC50 | SMILES
23 | > 10 µM | C[C@@H]1C[C@@H](NC(=O)c2cc(C3CC3)on2)CCN1C(=O)c1ccc2[nH]cnc2c1 [compound 425, N-((2R,4S)-1-(1H-benzo[d]imidazole-5-carbonyl)-2-methylpiperidin-4-yl)-5-cyclopropylisoxazole-3-carboxamide]
24 | > 10 µM | C[C@H]1C[C@H](NC(=O)c2cc(C3CC3)on2)CCN1C(=O)c1ccc2[nH]cnc2c1 [compound 426, N-((2S,4R)-1-(1H-benzo[d]imidazole-5-carbonyl)-2-methylpiperidin-4-yl)-5-cyclopropylisoxazole-3-carboxamide]
25 | > 10 µM | CC(C)CNc1ccc(S(=O)(=O)N2CC[C@H](NC(=O)c3cc(C4CC4)on3)C[C@H]2C)cn1 [compound 451, 5-cyclopropyl-N-((2R,4S)-1-((6-(isobutylamino)pyridin-3-yl)sulfonyl)-2-methylpiperidin-4-yl)isoxazole-3-carboxamide]
26 | > 10 µM | CC(C)CNc1ccc(S(=O)(=O)N2CC[C@@H](NC(=O)c3cc(C4CC4)on3)C[C@@H]2C)cn1 [compound 452, 5-cyclopropyl-N-((2S,4R)-1-((6-(isobutylamino)pyridin-3-yl)sulfonyl)-2-methylpiperidin-4-yl)isoxazole-3-carboxamide]
27 | 0.305 µM | C[C@H]1C[C@H](NC(=O)c2cc(C3CC3)on2)CCN1S(=O)(=O)c1ccc(N(C)CCN)nc1 [compound 462, N-((2S,4R)-1-((6-((2-aminoethyl)(methyl)amino)pyridin-3-yl)sulfonyl)-2-methylpiperidin-4-yl)-5-cyclopropylisoxazole-3-carboxamide]
28 | 0.121 µM | C[C@H]1C[C@@H](NC(=O)c2cc(C3CC3)on2)CCN1S(=O)(=O)c1ccc(Cl)cn1 [compound 466, N-((2S,4S)-1-((5-chloropyridin-2-yl)sulfonyl)-2-methylpiperidin-4-yl)-5-cyclopropylisoxazole-3-carboxamide]
29 | 5.97 µM | CC(C)CNc1ncccc1S(=O)(=O)N1C2CCCC1CC(NC(=O)c1cc(C3CC3)on1)C2 (stereo not shown) [compound 473, 5-cyclopropyl-N-(9-((2-(isobutylamino)pyridin-3-yl)sulfonyl)-9-azabicyclo[3.3.1]nonan-3-yl)isoxazole-3-carboxamide]
30 | 2.74 µM | CC(C)CNc1ncccc1S(=O)(=O)N1CC[C@H](NC(=O)c2cc(C3CC3)on2)C[C@@H]1C [compound 474, 5-cyclopropyl-N-((2S,4S)-1-((2-(isobutylamino)pyridin-3-yl)sulfonyl)-2-methylpiperidin-4-yl)isoxazole-3-carboxamide]
31 | 1.31 µM | NCCNc1ncccc1S(=O)(=O)N1C2CCCC1CC(NC(=O)c1cc(C3CC3)on1)C2 (stereo not shown) [compound 476, N-(9-((2-((2-aminoethyl)amino)pyridin-3-yl)sulfonyl)-9-azabicyclo[3.3.1]nonan-3-yl)-5-cyclopropylisoxazole-3-carboxamide]
